Structures are written as SMILES.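 Method: 48-hour compound exposure of cells in 96-well plates, five concentrations, linear interpolation of endpoints. The concentration for full growth arrest is given as TGI.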

From PubChem BioAssay (NCI) come the findings set out here.

For the first assay, the system named is M14 melanoma. Description: DTP human tumour cell line panel, 48 h.
One may read the TGI as the concentration giving total growth inhibition. `C=CCON(C(=O)OC(C)(C)C)C(C)(C)C` showed a TGI of more than 100 µM.

The next assay relates to HOP-62 NSCLC. Description: DTP human tumour cell line panel, 48 h.
Turning to `C=CCC(CCC(C)=O)(C(=O)OCC)C(=O)OCC`, the total growth inhibition concentration (TGI) was more than 100 µM.

The molecule `CC(C)C(Cl)CCC(C)(Cl)C(=O)CBr` (centres undefined) gave a TGI of 19.6 µM.

Molecule `C1CSCCSCCCS[C@@H]2CCCCC2SC1` (some centres undefined) showed a TGI of more than 100 µM.

`COC(=O)[C@H](Cc1ccccc1)NC(=O)c1ccc(CNC(=O)/C=C/c2csc(-c3ccccc3)n2)cc1` had a TGI of 52.5 µM.

`N#Cc1ccccc1OCCOc1ccccc1C#N` had a TGI of more than 100 µM.

`CCOC(=O)c1cn(CC)c(=O)n2c1nc1ccccc12` showed a TGI of more than 100 µM.

The molecule `Cc1cccc2sc(NC(=O)NS(=O)(=O)n3cnc4ccccc43)nc12` yielded a TGI of more than 100 µM.

With `NNc1nnc(CCCCCCCCc2nnc(NN)n2N)n1N`, the TGI is more than 100 µM.

In the case of `COc1ccc2nc3c(c(N)c2c1)C1CCC3C1(C)C` (centres undefined), the TGI was 47.9 µM.

`CCN1/C(=C/C#C/C(C)=C\c2sc3ccc(Cl)cc3[n+]2CC)Sc2ccc(Cl)cc21` gave a TGI of 29 µM.

Regarding `CC(=O)c1ccc(N=NN2CCCC2)cc1`, the TGI was more than 100 µM.

`CSC(=O)/C=C1\SS/C(=C\C(=O)SC)S1` came in with a TGI of 20.4 µM.

As for `Cc1ccc(S[C@@](C=O)(NC(=O)OCc2ccccc2)C(F)(F)F)cc1`, the TGI amounted to 88.3 µM.

With `O=C1CC(O)c2cscc21` (centres undefined), the total growth inhibition concentration (TGI) is more than 100 µM.

For the molecule `Cc1cc(O)c(/C=N/C(N)=S)c(=O)o1`, the concentration for total growth inhibition (TGI) was more than 100 µM.

As to `C=CCON(C(=O)OC(C)(C)C)C(C)(C)C`, the total growth inhibition concentration (TGI) was more than 100 µM.

For a further assay, the system named is SK-MEL-28 melanoma. Description: DTP human tumour cell line panel, 48 h.
Turning to `C=CCC(CCC(C)=O)(C(=O)OCC)C(=O)OCC`, the TGI was more than 100 µM.

For the molecule `CC(C)C(Cl)CCC(C)(Cl)C(=O)CBr` (centres undefined), the TGI was determined as 16.3 µM.

Turning to `C1CSCCSCCCS[C@@H]2CCCCC2SC1` (some centres undefined), the TGI is more than 100 µM.

For `COC(=O)[C@H](Cc1ccccc1)NC(=O)c1ccc(CNC(=O)/C=C/c2csc(-c3ccccc3)n2)cc1`, the TGI was found to be 10.9 µM.

In the case of `N#Cc1ccccc1OCCOc1ccccc1C#N`, the TGI is more than 100 µM.

As to `CCOC(=O)c1cn(CC)c(=O)n2c1nc1ccccc12`, the concentration for total growth inhibition (TGI) was more than 100 µM.

`Cc1cccc2sc(NC(=O)NS(=O)(=O)n3cnc4ccccc43)nc12` returned a TGI of more than 100 µM.

`NNc1nnc(CCCCCCCCc2nnc(NN)n2N)n1N` returned a TGI of more than 100 µM.

In the case of `COc1ccc2nc3c(c(N)c2c1)C1CCC3C1(C)C` (centres undefined), the TGI is more than 100 µM.

With `CCN1/C(=C/C#C/C(C)=C\c2sc3ccc(Cl)cc3[n+]2CC)Sc2ccc(Cl)cc21`, the concentration for total growth inhibition (TGI) came to 26.5 µM.

Turning to `CSC(=O)/C=C1\SS/C(=C\C(=O)SC)S1`, the TGI amounted to 6.34 µM.

In turn, `Cc1ccc(S[C@@](C=O)(NC(=O)OCc2ccccc2)C(F)(F)F)cc1` showed a TGI of 67.1 µM.

Molecule `O=C1CC(O)c2cscc21` (centres undefined) yielded a TGI of more than 100 µM.

The molecule `Cc1ccc(OCC2OC(n3cnc4c(Cl)nc(Nc5cc(Cl)cc(Cl)c5)nc43)CC2Oc2ccc(C)cc2)cc1` (centres undefined) returned a TGI of more than 100 µM.

In the case of `O=c1c(-c2ccccc2)nnc2n(Cc3ccccc3)c3ccccc3n12`, the TGI was more than 100 µM.

For `C=CCON(C(=O)OC(C)(C)C)C(C)(C)C`, the concentration for total growth inhibition (TGI) is more than 100 µM.

A further assay concerns RXF 393 renal. Put plainly: DTP human tumour cell line panel, 48 h.
The molecule `C=CCC(CCC(C)=O)(C(=O)OCC)C(=O)OCC` gave a TGI of more than 100 µM.

As to `CC(C)C(Cl)CCC(C)(Cl)C(=O)CBr` (centres undefined), the total growth inhibition concentration (TGI) came out at 7.79 µM.

The molecule `C1CSCCSCCCS[C@@H]2CCCCC2SC1` (some centres undefined) came in with a total growth inhibition concentration (TGI) of more than 100 µM.

Take `COC(=O)[C@H](Cc1ccccc1)NC(=O)c1ccc(CNC(=O)/C=C/c2csc(-c3ccccc3)n2)cc1`: the TGI came to 26.8 µM.

Consider `N#Cc1ccccc1OCCOc1ccccc1C#N`, for which the TGI was more than 100 µM.

`CCOC(=O)c1cn(CC)c(=O)n2c1nc1ccccc12` returned a TGI of more than 100 µM.

Regarding `Cc1cccc2sc(NC(=O)NS(=O)(=O)n3cnc4ccccc43)nc12`, the TGI turned out to be 49.1 µM.

For the molecule `NNc1nnc(CCCCCCCCc2nnc(NN)n2N)n1N`, the total growth inhibition concentration (TGI) is more than 100 µM.

Consider `COc1ccc2nc3c(c(N)c2c1)C1CCC3C1(C)C` (centres undefined), for which the TGI turned out to be 81.5 µM.

With `CCN1/C(=C/C#C/C(C)=C\c2sc3ccc(Cl)cc3[n+]2CC)Sc2ccc(Cl)cc21`, the total growth inhibition concentration (TGI) came out at 21.3 µM.

As for `CC(=O)c1ccc(N=NN2CCCC2)cc1`, the total growth inhibition concentration (TGI) is more than 100 µM.

Take `CSC(=O)/C=C1\SS/C(=C\C(=O)SC)S1`: the TGI was determined as 2.8 µM.

Molecule `Cc1ccc(S[C@@](C=O)(NC(=O)OCc2ccccc2)C(F)(F)F)cc1` showed a total growth inhibition concentration (TGI) of 31.2 µM.

In turn, `O=C1CC(O)c2cscc21` (centres undefined) returned a concentration for total growth inhibition (TGI) of more than 100 µM.

`Cc1cc(O)c(/C=N/C(N)=S)c(=O)o1` displayed a total growth inhibition concentration (TGI) of more than 100 µM.

Take `Cc1ccc(OCC2OC(n3cnc4c(Cl)nc(Nc5cc(Cl)cc(Cl)c5)nc43)CC2Oc2ccc(C)cc2)cc1` (centres undefined): the concentration for total growth inhibition (TGI) was more than 100 µM.

Regarding `O=c1c(-c2ccccc2)nnc2n(Cc3ccccc3)c3ccccc3n12`, the total growth inhibition concentration (TGI) is more than 100 µM.

Consider `C=CCON(C(=O)OC(C)(C)C)C(C)(C)C`, for which the total growth inhibition concentration (TGI) is more than 100 µM.

The test system of the next assay is HCC-2998 colon. Put plainly: DTP human tumour cell line panel, 48 h.
Turning to `C=CCC(CCC(C)=O)(C(=O)OCC)C(=O)OCC`, the concentration for total growth inhibition (TGI) was more than 100 µM.

`CC(C)C(Cl)CCC(C)(Cl)C(=O)CBr` (centres undefined) returned a TGI of 33.1 µM.

`C1CSCCSCCCS[C@@H]2CCCCC2SC1` (some centres undefined) gave a concentration for total growth inhibition (TGI) of more than 100 µM.

In turn, `COC(=O)[C@H](Cc1ccccc1)NC(=O)c1ccc(CNC(=O)/C=C/c2csc(-c3ccccc3)n2)cc1` registered a total growth inhibition concentration (TGI) of 19.4 µM.

As for `N#Cc1ccccc1OCCOc1ccccc1C#N`, the TGI is more than 100 µM.

In turn, `CCOC(=O)c1cn(CC)c(=O)n2c1nc1ccccc12` showed a total growth inhibition concentration (TGI) of more than 100 µM.

`Cc1cccc2sc(NC(=O)NS(=O)(=O)n3cnc4ccccc43)nc12` showed a concentration for total growth inhibition (TGI) of 30.3 µM.

For `NNc1nnc(CCCCCCCCc2nnc(NN)n2N)n1N`, the concentration for total growth inhibition (TGI) was more than 100 µM.

`COc1ccc2nc3c(c(N)c2c1)C1CCC3C1(C)C` (centres undefined): the TGI amounted to 31.9 µM.

For `CCN1/C(=C/C#C/C(C)=C\c2sc3ccc(Cl)cc3[n+]2CC)Sc2ccc(Cl)cc21`, the TGI is 17.6 µM.

With `CC(=O)c1ccc(N=NN2CCCC2)cc1`, the TGI is more than 100 µM.

With `CSC(=O)/C=C1\SS/C(=C\C(=O)SC)S1`, the TGI stood at 3.33 µM.

`Cc1ccc(S[C@@](C=O)(NC(=O)OCc2ccccc2)C(F)(F)F)cc1` displayed a TGI of more than 100 µM.

`O=C1CC(O)c2cscc21` (centres undefined): the TGI was more than 100 µM.

Regarding `Cc1cc(O)c(/C=N/C(N)=S)c(=O)o1`, the TGI is more than 100 µM.

As for `Cc1ccc(OCC2OC(n3cnc4c(Cl)nc(Nc5cc(Cl)cc(Cl)c5)nc43)CC2Oc2ccc(C)cc2)cc1` (centres undefined), the total growth inhibition concentration (TGI) was more than 100 µM.

The molecule `O=c1c(-c2ccccc2)nnc2n(Cc3ccccc3)c3ccccc3n12` returned a TGI of more than 100 µM.

`C=CCON(C(=O)OC(C)(C)C)C(C)(C)C`: the total growth inhibition concentration (TGI) is more than 100 µM.
